Literature values, collected in patent US20240316044A1, “GRANULATE COMPOSITION COMPRISING NILOTINIB” (HELM AG, priority 2021, published 2024).
Where a name gives a salt, the structure may show the parent alone.

BCS class (low/moderate aqueous solubility and low permeability): Class IV
SMILES: Cc1cn(-c2cc(NC(=O)c3ccc(C)c(Nc4nccc(-c5cccnc5)n4)c3)cc(C(F)(F)F)c2)cn1 [Anhydrous Nilotinib hydrochloride, 4-methyl-N-[3-(4-methyl-1H-imidazol-1-yl)-5-(trifluoromethyl)phenyl]-3-{[4-(pyridin-3-yl)pyrimidin-2-yl]amino} benzamide]
